Source: patent US20230159910A1, “DIMETHYLMONOTHIOARSINIC ACID-INDUCED MALIGNANTLY TRANSFORMED CELL LINE OF HUMAN KERATINOCYTES AND USE THEREOF” (SOOCHOW UNIVERSITY, priority 2021, published 2023)

Legend:
Format in all cases: cell-based, human
HaCaT cells [1] = test: Cell doubling time after persistent exposure of sub-cultured HaCaT cells; settings: persistent exposure to 1.0 μM; 28th, 35th passage; vs passage control, P<0.05; FIG. 3
Method: (§1) Two dishes of normal HaCaT cells (cell passage 0) were prepared. One dish of cells was persistently and chronically exposed to and incubated with Dulbecco's modified Eagle's medium (DMEM) with high glucose with 1.0 μM DMMTAv (containing 100 μg/ml streptomycin, 100 U/ml penicillin and 10% fetal bovine serum), and the medium was refreshed every 24 h. When the cells were grown to a confluency reaching 80%, the cells were sub-cultured and expanded up to the 35th passage. The other dish of cells was persistently and chronically exposed to and normally incubated with Dulbecco's modified Eagle's medium (DMEM) with high glucose (containing 100 μg/ml streptomycin, 100 U/ml penicillin and 10% fetal bovine serum), and the medium was refreshed every 24 h. When the cells were grown to a confluency reaching 80%, the cells were normally sub-cultured and expanded up to the 35th passage and used as the passage control group. One monitoring point is set every 7 passages to detect the cell doubling time of the 0th, 1st, 7th, 14th, 21st, 28th, 35th passages in the exposure group and the passage control group.
(§2) By detecting the changes in the matrix metalloproteinase-9 (MMP-9), the cell doubling time, the cell migration ability and cell anchoring independent growth, whether the cell undergoes malignant transformation is determined. […]

HaCaT cells [2] = test: MMP-9 secretion after persistent exposure of sub-cultured HaCaT cells; settings: persistent exposure to 1.0 μM; 21st, 28th and 35th passages; P<0.05; FIG. 2
Method: as §1, §2

HaCaT cells [3] = test: Cell survival of HaCaT cells by CCK-8 kit (determination of exposure dose); settings: HaCaT cells treated 24 h with 0-2 μM, FIG. 1
Method: Determination of appropriate exposure dose: After the HaCaT cells were treated with various concentrations (0-2 μM) of DMMTA^v for 24 h, and the cell survival was detected by the CCK-8 kit. The chronic exposure dose of DMMTA^v is determined to be 1.0 μM.

HaCaT cells [4] = test: Cell migration ability by scratch test; settings: persistent exposure to 1.0 μM, 35th passage, vs passage control, P<0.05, FIG. 4
Method: as §1, §2

HaCaT cells [5] = test: Malignant transformation of HaCaT cells by long-term exposure; settings: long-term exposure to 1.0 μM, subculture to 35th passage
Method: as §1, §2

HaCaT cells [6] = test: Cell anchoring independent growth by soft agar colony forming test; settings: persistent exposure to 1.0 μM, 35th passage, FIG. 5
Method: as §1, §2

SMILES: C[As](C)(O)=S [DMMTA^v, dimethylmonothioarsinic acid]
- cell doubling time (HaCaT cells [1]): significantly reduced
- secretion of MMP-9 compared with the passage control group (HaCaT cells [2]): significantly increased
- dose with the highest cell survival rate (chronic exposure dose) (HaCaT cells [3]): 1.0 µM
- cell migration ability (HaCaT cells [4]): significantly enhanced
- induction of malignant transformation of HaCaT cells (HaCaT cells [5]): can induce HaCaT cells to undergo malignant transformation
- colony formation in soft agar (HaCaT cells [6]): can form obvious colonies in soft agar
- colony formation rate compared with the passage control group cells (HaCaT cells [6]; soft agar, P<0.05): significantly higher
